Test results taken from US8329693B2, “Method for the prevention of thromboembolic disorders” (Orion Corporation, priority 2004, dated 2012).

Tested on: salt sensitive rat model
Assay: Stroke in salt sensitive rat model (summary statements)
Type: in vivo
Conditions: preventative treatment

CC(=O)Nc1ccc(C2=NNC(=O)C[C@H]2C)cc1 [metabolite (II), (R)—N-[4-(1,4,5,6-tetrahydro-4-methyl-6-oxo-3-pyridazinyl)phenyl]acetamide]
incidence and volume of brain lesions, behavioural disorders and mortality associated with stroke: markedly reduce
